For the assay, the target named is T1, PERK (Homo sapiens, UniProt Q9NZJ5).
T1 sequence (Q9NZJ5 30-1116): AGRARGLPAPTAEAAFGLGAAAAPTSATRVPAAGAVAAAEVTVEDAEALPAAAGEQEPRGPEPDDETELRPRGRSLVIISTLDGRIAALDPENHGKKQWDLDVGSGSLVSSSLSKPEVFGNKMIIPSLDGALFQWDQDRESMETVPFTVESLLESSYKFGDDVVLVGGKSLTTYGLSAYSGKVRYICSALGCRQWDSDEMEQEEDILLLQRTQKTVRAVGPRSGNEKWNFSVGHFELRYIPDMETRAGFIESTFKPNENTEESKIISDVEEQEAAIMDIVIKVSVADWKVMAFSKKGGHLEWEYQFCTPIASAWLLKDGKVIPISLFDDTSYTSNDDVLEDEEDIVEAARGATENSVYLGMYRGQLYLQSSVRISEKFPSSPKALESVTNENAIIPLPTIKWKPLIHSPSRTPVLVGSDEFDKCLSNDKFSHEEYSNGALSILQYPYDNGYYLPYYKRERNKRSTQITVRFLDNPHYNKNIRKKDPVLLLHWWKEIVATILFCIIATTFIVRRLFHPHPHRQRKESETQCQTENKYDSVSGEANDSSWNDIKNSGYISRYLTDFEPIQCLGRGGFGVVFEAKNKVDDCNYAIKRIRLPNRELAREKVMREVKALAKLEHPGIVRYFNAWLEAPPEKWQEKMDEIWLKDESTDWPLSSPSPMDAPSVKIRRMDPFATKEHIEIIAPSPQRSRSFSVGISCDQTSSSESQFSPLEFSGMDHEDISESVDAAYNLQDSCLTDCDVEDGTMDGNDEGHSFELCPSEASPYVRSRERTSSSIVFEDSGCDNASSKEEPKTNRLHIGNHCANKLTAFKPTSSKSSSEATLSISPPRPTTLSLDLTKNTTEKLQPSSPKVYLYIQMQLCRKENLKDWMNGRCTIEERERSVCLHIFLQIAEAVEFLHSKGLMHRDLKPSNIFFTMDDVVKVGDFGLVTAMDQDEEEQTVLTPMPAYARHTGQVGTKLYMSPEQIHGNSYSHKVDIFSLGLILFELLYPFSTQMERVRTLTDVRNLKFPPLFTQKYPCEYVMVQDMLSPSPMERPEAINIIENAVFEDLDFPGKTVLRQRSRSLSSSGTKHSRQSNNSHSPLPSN
Briefly: PERK enzyme assay (HTRF). The note with it: at least one experimental run. The assay is classed as biochemical. Summed up:
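HTRF read-out after 2 h of EDTA-quenched reactions, detecting phospho-eIF2α with Eu/APC reagents, gave IC50 values. Reaction: 0.75 nM GST-PERK, 30–60 min compound pre-incubation (max 1% DMSO), then 60 min with 40 nM biotin-eIF2α and 500 μM ATP, HEPES pH 7.5 buffer.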

Setting [1] is: PERK Enzyme (500 μM ATP) IC50, read-out: PERK Activity.
Setting [2] is: 500 μM ATP, read-out: PERK Enzyme (500 μM ATP) IC50.

SMILES strings stand for the structures. Read-outs that look alike come from different tables or passages of the source. Some results are limits rather than exact numbers.

In the case of `CN1C(=O)N(c2ccc(-c3cn(C4CC4)c4ncnc(N)c34)c(F)c2)CC1c1ccccc1` (single isomer, unassigned) [Example 166, 1-(4-(4-amino-7-cyclopropyl-7H-pyrrolo[2,3-d]pyrimidin-5-yl)-3-fluorophenyl)-3-methyl-4-phenylimidazolidin-2-one], the IC50 under setting [1] was under 100 nM.

As to `CN1C(=O)N(c2ccc(-c3cn(C4CC4)c4ncnc(N)c34)c(F)c2)CC1c1ccc(Cl)cc1` (single isomer, unassigned) [Example 168, 1-(4-(4-amino-7-cyclopropyl-7H-pyrrolo[2,3-d]pyrimidin-5-yl)-3-fluorophenyl)-4-(4-chlorophenyl)-3-methylimidazolidin-2-one], the IC50 under setting [1] is under 100 nM.

On to `CN1C(=O)N(c2ccc(-c3cn(C)c4ncnc(N)c34)c(F)c2)CC1c1ccc2c(c1)CCO2` (single isomer, unassigned) [Example 169, 1-(4-(4-amino-7-methyl-7H-pyrrolo[2,3-d]pyrimidin-5-yl)-3-fluorophenyl)-4-(2,3-dihydrobenzofuran-5-yl)-3-methylimidazolidin-2-one], for which the IC50 under setting [1] was under 100 nM.

On to `CCN1C(=O)N(c2ccc(-c3cn(C)c4ncnc(N)c34)c(F)c2)CC1c1cc(F)cc(F)c1` (single isomer, unassigned) [Example 171, 1-(4-(4-amino-7-methyl-7H-pyrrolo[2,3-d]pyrimidin-5-yl)-3-fluorophenyl)-4-(3,5-difluorophenyl)-3-ethylimidazolidin-2-one], for which, under setting [1], the IC50 was under 100 nM.

In the case of `CCN1C(=O)N(c2ccc(-c3cn(C)c4ncnc(N)c34)c(F)c2)CC1c1cc(F)cc(F)c1` (single isomer, unassigned) [Example 172, 1-(4-(4-amino-7-methyl-7H-pyrrolo[2,3-d]pyrimidin-5-yl)-3-fluorophenyl)-4-(3,5-difluorophenyl)-3-ethylimidazolidin-2-one], the IC50 under setting [2] turned out to be 30.1 nM and the IC50 under setting [1] is under 100 nM.

On to `CCN1C(=O)N(c2ccc(-c3cn(C4CC4)c4ncnc(N)c34)c(F)c2)CC1c1cc(F)cc(F)c1` (single isomer, unassigned) [Example 173, 1-(4-(4-amino-7-cyclopropyl-7H-pyrrolo[2,3-d]pyrimidin-5-yl)-3-fluorophenyl)-4-(3,5-difluorophenyl)-3-ethylimidazolidin-2-one], for which the IC50 under setting [1] is under 100 nM.

Regarding `CCN1C(=O)N(c2ccc(-c3cn(C4CC4)c4ncnc(N)c34)c(F)c2)CC1c1cc(F)cc(F)c1` (single isomer, unassigned) [Example 174, 1-(4-(4-amino-7-cyclopropyl-7H-pyrrolo[2,3-d]pyrimidin-5-yl)-3-fluorophenyl)-4-(3,5-difluorophenyl)-3-ethylimidazolidin-2-one], the IC50 under setting [1] is under 100 nM.

Turning to `Cn1cc(-c2ccc(N3CC(c4cc(F)cc(F)c4)CC3=O)cc2F)c2c(N)ncnc21` (stereo not drawn) [Example 4, 1-(4-(4-Amino-7-methyl-7H-pyrrolo[2,3-d]pyrimidin-5-yl)-3-fluorophenyl)-4-(3,5-difluorophenyl)pyrrolidin-2-one], the IC50 under setting [1] was in the range of 100 to 1000 nM.

Turning to `Cc1cc(N2CC(c3cc(F)cc(F)c3)CC2=O)ccc1-c1cn(C)c2ncnc(N)c12` (stereo not drawn) [Example 5, 1-(4-(4-Amino-7-methyl-7H-pyrrolo[2,3-d]pyrimidin-5-yl)-3-methylphenyl)-4-(3,5-difluorophenyl)pyrrolidin-2-one], under setting [1], the IC50 lay within 100 to 1000 nM.

Consider `Cn1cc(-c2ccc(N3CC(C4CCCCC4)CC3=O)cc2F)c2c(N)ncnc21` (stereo not drawn) [Example 6, 1-(4-(4-Amino-7-methyl-7H-pyrrolo[2,3-d]pyrimidin-5-yl)-3-fluorophenyl)-4-cyclohexyl pyrrolidin-2-one], for which the IC50 under setting [1] was over 1000 nM.

As to `CN1C(=O)N(c2ccc(-c3cn(C)c4ncnc(N)c34)c(F)c2)CC1c1ccccn1` (stereo not drawn) [Example 7, 1-(4-(4-amino-7-methyl-7H-pyrrolo[2,3-d]pyrimidin-5-yl)-3-fluorophenyl)-3-methyl-4-(pyridin-2-yl)imidazolidin-2-one], under setting [1], the IC50 is under 100 nM.

Turning to `CC(C)CN1C(=O)N(c2ccc(-c3cn(C)c4ncnc(N)c34)c(F)c2)CC1c1cc(F)ccc1F` (stereo not drawn) [Example 14, 1-(4-(4-amino-7-methyl-7H-pyrrolo[2,3-d]pyrimidin-5-yl)-3-fluorophenyl)-4-(2,5-difluorophenyl)-3-isobutylimidazolidin-2-one], the IC50 was 903 nM under setting [2] and 100 to 1000 nM under setting [1].

For `Cc1nc(N)c2c(-c3ccc(N4CC(c5cc(F)ccc5F)N(C)C4=O)cc3F)cn(C)c2n1` (stereo not drawn) [Example 15, 1-(4-(4-amino-2,7-dimethyl-7H-pyrrolo[2,3-d]pyrimidin-5-yl)-3-fluorophenyl)-4-(2,5-difluorophenyl)-3-methylimidazolidin-2-one], the IC50 under setting [1] was under 100 nM.

Regarding `CN1C(=O)N(c2ccc(-c3cn(C)c4ncnc(N)c34)c(F)c2)CC1c1cc(F)cc(Cl)c1` (stereo not drawn) [Example 16, 1-(4-(4-amino-7-methyl-7H-pyrrolo[2,3-d]pyrimidin-5-yl)-3-fluorophenyl)-4-(3-chloro-5-fluorophenyl)-3-methylimidazolidin-2-one], the IC50 under setting [1] lay in the range of 100 to 1000 nM.

In the case of `CCN1C(=O)N(c2ccc(-c3cn(CC(F)F)c4ncnc(N)c34)c(F)c2)CC1c1cc(F)ccc1F` (stereo not drawn) [Example 17, 1-(4-(4-amino-7-(2,2-difluoroethyl)-7H-pyrrolo[2,3-d]pyrimidin-5-yl)-3-fluorophenyl)-4-(2,5-difluorophenyl)-3-ethylimidazolidin-2-one], the IC50 under setting [1] lay in the range of 100 to 1000 nM.

With `CN1C(=O)N(c2ccc(-c3cn(C)c4ncnc(N)c34)c(F)c2)CC1c1cc(F)ccc1F` (stereo not drawn) [Example 18, 1-(4-(4-amino-7-methyl-7H-pyrrolo[2,3-d]pyrimidin-5-yl)-3-fluorophenyl)-4-(2,5-difluorophenyl)-3-methylimidazolidin-2-one], under setting [1], the IC50 fell in the range of 100 to 1000 nM.

In the case of `CCN1C(=O)N(c2ccc(-c3cn(C)c4nc(C)nc(N)c34)c(F)c2)CC1c1cc(F)ccc1F` (stereo not drawn) [Example 19, 1-(4-(4-amino-2,7-dimethyl-7H-pyrrolo[2,3-d]pyrimidin-5-yl)-3-fluorophenyl)-4-(2,5-difluorophenyl)-3-ethylimidazolidin-2-one], under setting [1], the IC50 is over 1000 nM.

Regarding `Cn1cc(-c2ccc(N3CC(c4cc(F)ccc4F)N(Cc4ccccc4)C3=O)cc2F)c2c(N)ncnc21` (stereo not drawn) [Example 20, 1-(4-(4-amino-7-methyl-7H-pyrrolo[2,3-d]pyrimidin-5-yl)-3-fluorophenyl)-3-benzyl-4-(2,5-difluorophenyl)imidazolidin-2-one], the IC50 under setting [2] was determined as 3640 nM and the IC50 under setting [1] was over 1000 nM.

As to `Cn1cc(-c2ccc(N3CC(c4cc(F)ccc4F)NC3=O)cc2F)c2c(N)ncnc21` (stereo not drawn) [Example 21, 1-(4-(4-amino-7-methyl-7H-pyrrolo[2,3-d]pyrimidin-5-yl)-3-fluorophenyl)-4-(2,5-difluorophenyl)imidazolidin-2-one], under setting [1], the IC50 lay in the range of 100 to 1000 nM.

`CCN1C(=O)N(c2ccc(-c3cn(C)c4ncnc(N)c34)c(F)c2)CC1c1cccc(Cl)c1F` (stereo not drawn) [Example 22, 1-(4-(4-amino-7-methyl-7H-pyrrolo[2,3-d]pyrimidin-5-yl)-3-fluorophenyl)-4-(3-chloro-2-fluorophenyl)-3-ethylimidazolidin-2-one]: the IC50 under setting [1] lay in the range of 100 to 1000 nM.

Take `CCN1C(=O)N(c2ccc(-c3cn(C)c4ncnc(N)c34)c(F)c2)CC1c1ccc(F)cc1F` (stereo not drawn) [Example 23, 1-(4-(4-amino-7-methyl-7H-pyrrolo[2,3-d]pyrimidin-5-yl)-3-fluorophenyl)-4-(2,4-difluorophenyl)-3-ethylimidazolidin-2-one]: the IC50 under setting [1] lay in the range of 100 to 1000 nM.

For the origin of these results see patent publication US20180237441A1, “Chemical Compounds” (GlaxoSmithKline Intellectual Property (No.2) Limited, priority 2015, published 2018).
